Some test systems named below: MDA-N; NCI/ADR-RES; SNB-78; LXFL 529; DMS-273; M19-MEL; XF498; HOP-18.
What all share (experiment): inhibition of tumour cell growth, NCI panel, 48 h

Consider 30 compounds from ChEMBL document CHEMBL1201862, “PubChem BioAssay data set” (2004).

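These data come from cells grown in 96-well plates and exposed to compound for 48 hours at five concentrations. The concentration for 50% growth inhibition is given as GI50.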 Active and inactive are the calls of the source. Cut-off read from the data, not from the text of the source: active = GI50 up to about 1.1 µM and inactive = higher.

Regarding `COc1c(-c2ccc(O)c(O)c2)oc2c(O)c(O)cc(O)c2c1=O`, the GI50 in the assay with MDA-N is 61.5 µM (inactive); in the assay on NCI/ADR-RES, > 100 µM (inactive).
For the compound `Cc1ccc(/C=N\NC(=O)c2ccncc2)s1`, the GI50 in the assay with MDA-N and in the assay with NCI/ADR-RES was > 100 µM (inactive) throughout.
For the compound `CC1OC(n2cc(F)c(=O)[nH]c2=O)C(O[Si](C)(C)C(C)(C)C)C1O[Si](C)(C)C(C)(C)C` (centres undefined), the GI50 was 15.5 µM (inactive) with MDA-N and 12.7 µM (inactive) with NCI/ADR-RES.
Take `Cc1cc(C#N)c[n+](C)c1`: the GI50 in the assay on MDA-N and in the assay on NCI/ADR-RES was > 100 µM (inactive) throughout.
In the case of `CN(CCNC(=O)c1n[nH]c2c1Cc1ccccc1-2)CCNC(=O)c1n[nH]c2c1Cc1ccccc1-2`, the GI50 with MDA-N is 16.5 µM (inactive); in the assay on NCI/ADR-RES, 37.8 µM (inactive).
In the case of `Cc1ccc(/C=C/C(=O)c2cccc3ccccc23)cc1`, the GI50 is 14.8 µM (inactive) in the assay with SNB-78; 12.7 µM (inactive) in the assay with LXFL 529; 19 µM (inactive) in the assay on DMS-273; 21.2 µM (inactive) with M19-MEL; 15.3 µM (inactive) in the assay on XF498.
As to `COC(=O)C1CCC(=O)N1C(c1cc(OC)c(OC)c(OC)c1)c1cc(OC)c(OC)c(OC)c1` (centres undefined), in the assay with MDA-N, the GI50 was > 100 µM (inactive).
Still for that read-out and setting: then `CCOC(=O)NC(Nc1ccc(S(=O)(=O)Nc2nc(C)cc(C)n2)cc1)(C(=O)OCC)C(F)(F)F` (centres undefined), with > 100 µM (inactive).
For the compound `C1=C[C@]2(CCC13OCCO3)COc1ccccc12`, the GI50 in the assay on MDA-N was 35.6 µM (inactive); with NCI/ADR-RES, 27.4 µM (inactive).
For the compound `CN(C)c1ccc(/C=N/c2ccc(-c3nc4ccccc4[nH]3)cc2)cc1`, the values for the GI50 with MDA-N and in the assay with NCI/ADR-RES were > 100 µM (inactive) and 1.09 µM (active), respectively.
With `O=C(O)CCC(NC(=O)c1ccc(Nc2nc3ccccc3nc2C(=O)O)cc1)C(=O)O` (centres undefined), the GI50 with MDA-N and in the assay with NCI/ADR-RES was > 100 µM (inactive) throughout.
For the compound `CCOC(=O)c1[nH]c2c(OC)n[n+]([O-])cc2c1[N+](=O)[O-]`, the GI50 in the assay with SNB-78 was 19.8 µM (inactive); with HOP-18 it was 20.5 µM (inactive); with LXFL 529, 17.3 µM (inactive); in the assay with M19-MEL it was 24.8 µM (inactive); in the assay on XF498, 16.1 µM (inactive).
On to `O=C1CSC(=S)N1c1ccco1`, for which the figures for the GI50 in the assay with MDA-N and in the assay on NCI/ADR-RES were 19.8 µM (inactive) and 37.9 µM (inactive), respectively.
As to `COc1cccc(/N=N/C(=N\NC(=O)c2ccc(C)cc2)c2ccc(N(CCC#N)CCC#N)cc2C)c1`, the GI50 in the assay with MDA-N and with NCI/ADR-RES was > 100 µM (inactive) each time.
In the case of `C=C1CC(C)(c2cccc(Nc3nc4ccccc4c4occc34)c2)OC1=O` (centres undefined), the GI50 with MDA-N is 5.21 µM (inactive); with NCI/ADR-RES, 8 µM (inactive).
On to `CCCCNc1nc(NC2OCC(OC(C)=O)C(OC(C)=O)C2OC(C)=O)c(N=O)c(=O)n1C` (centres undefined), for which the GI50 in the assay on NCI/ADR-RES is > 10 µM (inactive).
Regarding `N=C(N)SCCON1C(=O)c2ccccc2C1=O`, the GI50 in the assay with MDA-N and in the assay on NCI/ADR-RES was > 100 µM (inactive) each time.
In the case of `CC1=C(OC2OC(CO)C(O)C(O)C2O)C(=O)C[C@H]2C1=CC[C@@H]1[C@@]2(C)C(=O)C[C@]2(C)[C@@H]([C@@](C)(O)C(=O)CCC(C)(C)O)[C@H](O)C[C@@]12C` (some centres undefined), the GI50 in the assay on MDA-N and in the assay on NCI/ADR-RES was > 100 µM (inactive) throughout.
For the compound `Cc1ccc2nc(Cl)c(/C=N/N3C(=O)/C(=C/Cc4ccco4)N=C3c3ccccc3)cc2c1`, the GI50 in the assay with MDA-N was 16.9 µM (inactive); with NCI/ADR-RES it was 28.4 µM (inactive).
Regarding `CC1=NN=C(N)N/C1=C\C(Sc1ccc(Cl)cc1)c1ccc(Cl)cc1Cl` (centres undefined), the GI50 in the assay with MDA-N is 19.7 µM (inactive); in the assay on NCI/ADR-RES, 17.6 µM (inactive).
Regarding `O=[N+]([O-])c1ccc2nc3ccccc3cc2c1`, the GI50 in the assay with NCI/ADR-RES is 1.51 µM (inactive).
As for `NC(=O)c1ncn2c(=O)n(CCl)nnc12`, the values for the GI50 in the assay with MDA-N and in the assay on NCI/ADR-RES were > 100 µM (inactive) and 48.9 µM (inactive), respectively.
With `Clc1ccc(C2=Nc3ccccc3SC(c3ccc(Cl)c(Cl)c3)C2)c(Cl)c1` (centres undefined), the GI50 in the assay on SNB-78 was 18.3 µM (inactive); in the assay with LXFL 529, 15.3 µM (inactive); in the assay with DMS-273, 11.5 µM (inactive); in the assay on M19-MEL it was 16 µM (inactive); in the assay with XF498, 12.4 µM (inactive).
For the compound `CCCN(CCC)C(=O)c1c([N+](=O)[O-])cc(C(F)(F)F)cc1[N+](=O)[O-]`, the GI50 with SNB-78 is 35.2 µM (inactive); in the assay with LXFL 529, 30.4 µM (inactive); in the assay on DMS-273 it was 35.4 µM (inactive); in the assay on M19-MEL, 13.7 µM (inactive).
For `CCc1cccc(NC(=O)c2cc(/C=C/c3ccccc3)nc(S)n2)c1`, the GI50 in the assay with SNB-78, in the assay with HOP-18, in the assay with LXFL 529, in the assay with DMS-273 and with M19-MEL was > 100 µM (inactive) each time.
As to `Cc1ccc(C)c(N2C(=O)C(=O)c3c(C)ccc(C)c32)c1`, in the assay with NCI/ADR-RES, the GI50 is 23.6 µM (inactive).
On to `CC(NC(=O)OCc1ccccc1)NC(=O)C(CC(=O)OC(C)(C)C)NC(=O)OC(C)(C)C` (centres undefined), for which the GI50 in the assay with MDA-N and with NCI/ADR-RES was > 100 µM (inactive) throughout.
Consider `C[C@@]12C[C@@H](c3ccccc3O1)N1CCSC1=N2`, for which the GI50 in the assay with MDA-N and in the assay on NCI/ADR-RES was > 100 µM (inactive) in each case.
Turning to `C[N+](C)(C)CCCCCc1c2nc(c(CCCCC[N+](C)(C)C)c3ccc([nH]3)c(CCCCC[N+](C)(C)C)c3nc(c(CCCCC[N+](C)(C)C)c4ccc1[nH]4)C=C3)C=C2`, the GI50 in the assay with MDA-N and in the assay on NCI/ADR-RES was > 100 µM (inactive) in each case.
On to `C/C(=N\NC(=O)c1ccncc1)c1ccccc1F`, for which the GI50 in the assay on MDA-N and in the assay on NCI/ADR-RES was > 10 µM (inactive) each time.
